In ChEMBL document CHEMBL1136880, “Discovery of N-aryl-9-oxo-9H-fluorene-1-carboxamides as a new series of apoptosis inducers using a cell- and caspase-based high-throughput screening assay. 1. Structure-activity relationships of the carboxamide group” (Bioorg Med Chem Lett, 2009):
Converted amounts (≈) assume the structure as drawn. The source made the active and inactive calls. No cut-off for these calls is given here.

What was measured:
[1] = tested on: SNU-398; experiment: Induction of apoptosis in human SNU398 cells after 48 hrs; type: functional, cell-based; settings: SNU-398, 48 h
[2] = tested on: HCT-116; experiment: Induction of apoptosis in human HCT116 cells after 48 hrs; type: functional, cell-based; settings: HCT-116, 48 h
[3] = tested on: T47D; experiment: Induction of apoptosis in human T47D cells after 48 hrs; type: functional, cell-based
[4] = tested on: SNU-398; experiment: Growth inhibition of human SNU398 cells after 48 hrs; type: functional; settings: SNU-398, 48 h
[5] = tested on: T47D; experiment: Growth inhibition of human T47D cells after 48 hrs; type: functional
[6] = tested on: HCT-116; experiment: Growth inhibition of human HCT116 cells after 48 hrs; type: functional; settings: HCT-116, 48 h
[7] = Inhibition of tubulin polymerization by DAPI staining method
[8] = Solubility in buffer solution containing ethanol:Cremophor:D5W of 12.5:12.5:75; type: physicochemical
[9] = tested on: HCT-116; experiment: Cell cycle arrest in human HCT116 cells assessed as accumulation at G1 phase at 2 uM after 24 hrs by flow cytometry; type: functional
[10] = tested on: HCT-116; experiment: Cell cycle arrest in human HCT116 cells assessed as accumulation at subG1 phase at 2 uM after 48 hrs by flow cytometry; type: functional
[11] = tested on: HCT-116; experiment: Cell cycle arrest in human HCT116 cells assessed as accumulation at S phase at 2 uM after 48 hrs by flow cytometry; type: functional
[12] = tested on: HCT-116; experiment: Cell cycle arrest in human HCT116 cells assessed as accumulation at subG1 phase at 2 uM after 24 hrs by flow cytometry; type: functional
[13] = tested on: HCT-116; experiment: Cell cycle arrest in human HCT116 cells assessed as accumulation at G1 phase at 2 uM after 48 hrs by flow cytometry; type: functional
[14] = tested on: HCT-116; experiment: Cell cycle arrest in human HCT116 cells assessed as accumulation at G2/M phase at 2 uM after 24 hrs by flow cytometry; type: functional
[15] = tested on: HCT-116; experiment: Cell cycle arrest in human HCT116 cells assessed as accumulation at S phase at 2 uM after 24 hrs by flow cytometry; type: functional
[16] = tested on: HCT-116; experiment: Cell cycle arrest in human HCT116 cells assessed as accumulation at G2/M phase at 2 uM after 48 hrs by flow cytometry; type: functional

Row | SMILES | EC50 [1] [nM] | EC50 [2] [nM] | EC50 [3] [nM] | further results
1 | O=C(Nc1ccccc1O)c1cccc2c1C(=O)c1ccccc1-2 | > 10000 | > 10000 | > 10000 | 
2 | Cc1cccc(NC(=O)c2cccc3c2C(=O)c2ccccc2-3)c1 | > 10000 | > 10000 | > 10000 | 
3 | CN(C(=O)c1cccc2c1C(=O)c1ccccc1-2)c1ccccc1-n1cccn1 | > 10000 | > 10000 | > 10000 | 
4 | O=C(Nc1ccccc1-c1nnn[nH]1)c1cccc2c1C(=O)c1ccccc1-2 | > 10000 | > 10000 | > 10000 | 
5 | Nc1ccccc1NC(=O)c1cccc2c1C(=O)c1ccccc1-2 | > 10000 | > 10000 | > 10000 | 
6 | COc1ccccc1CNC(=O)c1cccc2c1C(=O)c1ccccc1-2 | > 10000 | > 10000 | > 10000 | 
7 | Cc1ccc(NC(=O)c2cccc3c2C(=O)c2ccccc2-3)cc1 | > 10000 | > 10000 | 4600 | 
8 | CN1CCN(Cc2ccccc2NC(=O)c2cccc3c2C(=O)c2ccccc2-3)CC1 | > 10000 | > 10000 | > 10000 | 
9 | O=C(NCc1ccccc1Cl)c1cccc2c1C(=O)c1ccccc1-2 | > 10000 | > 10000 | > 10000 | 
10 | N#Cc1ccccc1NC(=O)c1cccc2c1C(=O)c1ccccc1-2 | > 10000 | > 10000 | > 10000 | 
11 | COc1cc2c(c(OC)c1OC)-c1ccc(OC)c(=O)cc1[C@@H](NC(C)=O)CC2 [COLCHICINE] |  |  |  | IC50 ([7]; read-out: IC50): 500 nM
12 | Cc1ccccc1N(C)C(=O)c1cccc2c1C(=O)c1ccccc1-2 | > 10000 | > 10000 | > 10000 | 
13 | Cc1cccnc1NC(=O)c1cccc2c1C(=O)c1ccccc1-2 | > 10000 | > 10000 | > 10000 | 
14 | Cc1cccc(C)c1NC(=O)c1cccc2c1C(=O)c1ccccc1-2 | > 10000 | > 10000 | > 10000 | 
15 | CC[C@]1(O)C[C@@H]2CN(CCc3c([nH]c4ccccc34)[C@@](C(=O)OC)(c3cc4c(cc3OC)N(C)[C@H]3[C@@](O)(C(=O)OC)[C@H](OC(C)=O)[C@]5(CC)C=CCN6CC[C@]43[C@@H]65)C2)C1 [VINBLASTINE] |  |  |  | IC50 ([7]; read-out: IC50): 500 nM
16 | Cc1ccncc1NC(=O)c1cccc2c1C(=O)c1ccccc1-2 | > 10000 | > 10000 | > 10000 | 
17 | CC1CCCCC1NC(=O)c1cccc2c1C(=O)c1ccccc1-2 (stereo not given) | > 10000 | > 10000 | > 10000 | 
18 | O=C(Nc1nccs1)c1cccc2c1C(=O)c1ccccc1-2 | > 10000 | > 10000 | > 10000 | 
19 | O=C(Nc1cccnc1)c1cccc2c1C(=O)c1ccccc1-2 | > 10000 | > 10000 | > 10000 | 
20 | O=C(Nc1ccccn1)c1cccc2c1C(=O)c1ccccc1-2 | > 10000 | > 10000 | > 10000 | 
21 | O=C(Nc1ccccc1-n1ccnc1)c1cccc2c1C(=O)c1ccccc1-2 | > 10000 | > 10000 | > 10000 | 

Continued, in another order:

Row | EC50 [1] [nM] | EC50 [2] [nM] | EC50 [3] [nM] | SMILES | further results
22 | > 10000 | > 10000 | 3700 | COc1ccc(NC(=O)c2cccc3c2C(=O)c2ccccc2-3)cc1 | 
23 | > 10000 | > 10000 | 4400 | O=C(Nc1ccccc1)c1cccc2c1C(=O)c1ccccc1-2 | 
24 | > 10000 | > 10000 | 1800 | O=C(Nc1ccccc1F)c1cccc2c1C(=O)c1ccccc1-2 | 
25 | 1500 | 2300 | 480 | O=C(Nc1ccccc1OCF)c1cccc2c1C(=O)c1ccccc1-2 | 
26 | 2200 | 2700 | 2300 | O=C(Nc1ccccc1Br)c1cccc2c1C(=O)c1ccccc1-2 | 
27 | 2100 | 2600 | 2800 | O=C(Nc1ccccc1N1CCCCC1)c1cccc2c1C(=O)c1ccccc1-2 | 
28 | 1700 | 1800 | 1700 | O=C(Nc1ccccc1-c1ccccc1)c1cccc2c1C(=O)c1ccccc1-2 | GI50 [4]: 350 nM; GI50 [5]: 210 nM; GI50 [6]: 580 nM
29 | 410 | 560 | 470 | O=C(Nc1ccccc1Cl)c1cccc2c1C(=O)c1ccccc1-2 | GI50 [4]: 530 nM; GI50 [5]: 230 nM; GI50 [6]: 540 nM
30 | 4900 | 7500 | 620 | COc1ccccc1NC(=O)c1cccc2c1C(=O)c1ccccc1-2 | 
31 | 5500 | 6300 | 5900 | O=C(Nc1ccccc1-n1cccc1)c1cccc2c1C(=O)c1ccccc1-2 | 
32 | 3900 | 5200 | 5300 | O=C(Nc1ccccc1N1CCOCC1)c1cccc2c1C(=O)c1ccccc1-2 | 
33 | 340 | 520 | 2400 | COC(=O)c1ccccc1NC(=O)c1cccc2c1C(=O)c1ccccc1-2 | GI50 [4]: 310 nM; GI50 [5]: 180 nM; GI50 [6]: 480 nM
34 | 830 | 1200 | 980 | CN(C)c1ccccc1NC(=O)c1cccc2c1C(=O)c1ccccc1-2 | solubility [8]: 6100 µg/mL (≈ 17.8 mM)
35 | 2600 | 5500 | 2500 | O=C(Nc1ccccc1[N+](=O)[O-])c1cccc2c1C(=O)c1ccccc1-2 | 
36 | 960 | 1600 | 2900 | CCOc1ccccc1NC(=O)c1cccc2c1C(=O)c1ccccc1-2 | GI50 [4]: 270 nM; GI50 [5]: 450 nM; GI50 [6]: 400 nM
37 | 1100 | 1300 | 1400 | O=C(Nc1ccccc1-n1cccn1)c1cccc2c1C(=O)c1ccccc1-2 | GI50 [4]: 780 nM; Activity [9]: Active; Activity [10]: Active; IC50 [7]: Not Active; solubility [8]: 6100 µg/mL (≈ 16.7 mM); Activity [11]: Active; Activity [12]: Active; Activity [13]: Active; Activity [14]: Active; Activity [15]: Active; GI50 [5]: 160 nM; Activity [16]: Active; GI50 [6]: 1100 nM
38 | 7200 | 10700 | 4700 | O=C(Nc1ccccc1CBr)c1cccc2c1C(=O)c1ccccc1-2 | 
39 | 4400 | 3600 | 3500 | [N-]=[N+]=Nc1ccccc1NC(=O)c1cccc2c1C(=O)c1ccccc1-2 | 
40 | 1300 | 2200 | 2100 | Cc1ccccc1C(=O)Nc1cccc2c1C(=O)c1ccccc1-2 | 
41 | 640 | 1100 | 980 | Cc1ccccc1NC(=O)c1cccc2c1C(=O)c1ccccc1-2 | GI50 [4]: 300 nM; Activity [9]: 32%; Activity [10]: 41%; IC50 [7]: Not Active; Activity [11]: 11%; Activity [12]: 8%; Activity [13]: 29%; Activity [14]: 48%; Activity [15]: 10%; GI50 [5]: 180 nM; Activity [16]: 16%; GI50 [6]: 360 nM
42 | 710 | 940 | 1400 | CN(C)Cc1ccccc1NC(=O)c1cccc2c1C(=O)c1ccccc1-2 | 
